Experimental data published in publication PMC11397035, “In Vitro and In Silico Analysis of PTP1B Inhibitors from Cleistocalyx operculatus Leaves and Their Effect on Glucose Uptake” (Nutrients, 2024).
“Also recorded” adds a separate entry of the source. Read-outs that look alike come from different tables or passages of the source.

Experiments:
[1] = biological target: T1, PTP1B (Homo sapiens, UniProt P18031); test: In vitro PTP1B inhibition assay (p-NPP substrate); format: biochemical
T1 construct: purchased Enzo Life Sciences Inc
T1 sequence (P18031 1-435): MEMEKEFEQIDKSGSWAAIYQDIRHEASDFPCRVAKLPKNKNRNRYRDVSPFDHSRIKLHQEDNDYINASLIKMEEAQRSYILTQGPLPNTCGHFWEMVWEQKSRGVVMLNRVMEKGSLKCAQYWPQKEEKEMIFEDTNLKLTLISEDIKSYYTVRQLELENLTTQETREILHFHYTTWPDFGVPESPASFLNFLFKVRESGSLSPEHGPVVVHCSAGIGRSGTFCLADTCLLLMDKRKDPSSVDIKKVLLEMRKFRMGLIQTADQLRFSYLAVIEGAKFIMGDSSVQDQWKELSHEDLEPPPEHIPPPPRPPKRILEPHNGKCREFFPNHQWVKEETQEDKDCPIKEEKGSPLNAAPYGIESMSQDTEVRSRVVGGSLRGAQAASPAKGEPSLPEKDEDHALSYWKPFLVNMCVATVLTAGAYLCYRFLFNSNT
Description: PTP1B enzyme inhibition activity was assessed following a previously described protocol. […] It was followed by incubation at 37 °C for 30 min. After that, 10 μL of 10 M NaOH was added to quench the reaction. […] The non-enzymatic reaction of the substrate was considered and accounted for by comparing data to a control experiment without the PTP1B enzyme. IC50 values were calculated using non-linear regression in GraphPad Prism 10 (GraphPad Software, Inc., San Diego, CA, USA), based on triplicate experiments.

[2] = tested on: 3T3-L1 adipocytes; test: Glucose uptake using the 2-NBDG probe in differentiated 3T3-L1 adipocytes; format: cell-based; details: 1 h; for glucose uptake (2-NBDG) stimulatory effect: 20 μM; for concentration-response of glucose uptake stimulation: 5, 10, and 20 μM
Description: 3T3-L1 fibroblasts were cultured in DMEM (HyClone, Logan, UT, USA) supplemented with 10% calf serum, 100 U/mL penicillin, and 100 μg/mL streptomycin from Gibco (Grand Island, NY, USA). The cells were incubated at 37 °C with 5% CO2. Cells were differentiated after treatment with DMEM enriched with 10% fetal bovine serum (FBS) (HyClone, Logan, UT, USA), 1 μM dexamethasone (Sigma, St. Louis, MO, USA), 520 μM 3-isobutyl-1-methylxanthine (Sigma, St. Louis, MO, USA), and 1 μg/mL insulin (Roche, Mannheim, Germany). After 48 h, the media were changed with fresh DMEM containing 10% FBS, 1 μg/mL insulin, 100 U/mL penicillin, and 100 μg/mL streptomycin. Every 48 ours, the media were replaced until the induction of adipogenesis. Intracellular lipid droplets appeared after 4 to 6 days of incubation.
In vitro experiments measured glucose uptake in 3T3-L1 adipocytes using 2-NBDG, a fluorescent glucose derivative (Invitrogen, Eugene, OR, USA). Cells were cultured on 96-well plates in a glucose-free medium supplemented with 10% FBS. After incubation, cells were treated with either insulin (as a positive control) or the test compounds in the presence or absence of 2-NBDG and were further incubated for an additional hour. Cells were washed with cold phosphate-buffered saline (PBS). The 2-NBDG fluorescence was quantified by measuring the signal intensity at excitation/emission wavelengths of 450/535 nm using a SpectraMax Gemini XPS fluorescence microplate reader (Molecular Devices, San Jose, CA, USA). For cellular transport studies involving 2-NBDG, 3T3-L1 adipocytes were grown on sterilized glass coverslips in a glucose-free medium containing 10% FBS for 24 h. After treatment with 2-NBDG, cells were washed with cold PBS. Fluorescent images were obtained with an Olympus IX 70 fluorescence microscope (Olympus Corporation, Tokyo, Japan) to quantify the cellular transport of 2-NBDG.

[3] = biological target: T1, PTP1B; test: Kinetic analysis with PTP1B (Lineweaver–Burk and Dixon plots); format: biochemical; details: for Ki: determined by Dixon plot interpretation; for Inhibition Type: determined by Lineweaver–Burk plots
Description: Reaction velocity was measured at different concentrations of tested compounds for kinetic analysis. The tested compounds or DMSO were preincubated with the enzyme and buffer solution at 37 °C for 2 min, followed by adding 50 μL of substrate (p-NPP) at different concentrations. The initial reaction velocities were monitored at 37 °C at 405 nm for 15 min. The kinetic reaction slopes were calculated based on the absorbance increments observed between 2 and 10 min (within the linear range). GraphPad Prism 10 (GraphPad Software, Inc., San Diego, CA, USA) was used to graph the double reciprocal Lineweaver–Burk and Dixon plots.

[4] = tested on: pre-diabetic male Sprague Dawley rats; parameters: method as in PMID 29596390; details: pre-diabetic male Sprague Dawley rats ref 44; cited from earlier work
[5] = tested on: 3T3-L1 adipocytes; parameters: method as in PMID 27765349; details: cited from earlier work
[6] = 50% PTP1B inhibitory effect, mean ± S.E.M. of triplicate experiments, six concentrations, read-out: IC50

Structure (SMILES) | IC50 [1, 6] | PTP1B inhibitory activity (in words) [1] | glucose uptake (2-NBDG) stimulatory effect [2] | other results
C=C(CO)C1CCC2(C(=O)OC)CCC3(C(=O)O)C(CCC4C5(C)CCC(O)C(C)(C)C5CCC43C)C12 (centres unmarked) [Compound 1, Cleistocalyxic acid L] | > 20 µM | – | – | –
C=C(C)C1CCC2(C(=O)OC)CCC3(C(=O)O)C(CCC4C5(C)CCC(O)C(C)(CO)C5CCC43C)C12 (centres unmarked) [Compound 2, Cleistocalyxic acid M] | > 20 µM | – | – | –
C=C1CCC23CCC4(C)C5(C)CCC6C(=C)C(O)C(O)CC6(C)C5C5OC5C4(OC2=O)C3C1C (centres unmarked) [Compound 3, Cleistocalyxolide C] | > 20 µM | reduced inhibitory effects | low glucose uptake stimulation | –
C=C(C)[C@@H]1CC[C@]2(C(=O)O)CC[C@]3(C)[C@H](CC[C@@H]4[C@@]5(C)C[C@@H](O)[C@H](O)C(C)(C)[C@@H]5CC[C@]43C)[C@@H]12 [Compound 6, alphitolic acid] | 4.1 ± 0.2 µM | strong PTP1B inhibitory activities | showed glucose uptake stimulatory effects; also recorded: particularly potent glucose uptake stimulatory effects | Ki [3]: 2.8 ± 0.4 µM; Inhibition Type [3]: non-competitive inhibitor of PTP1B; concentration-response of glucose uptake stimulation [2]: dose dependent
C=C1[C@@H](O)[C@H](O)C[C@]2(C)[C@H]3[C@@H]4O[C@@H]4[C@]45OC(=O)[C@@]6(CC[C@@H](C)[C@H](C)[C@H]64)CC[C@@]5(C)[C@]3(C)CC[C@@H]12 [Compound 7, ulmoidol] | > 20 µM | reduced inhibitory effects | low glucose uptake stimulation | –
CC1(C)CCC23CCC4(C)C5(C)CCC6C(C)(C)C(O)C(O)CC6(C)C5CC(O)C4(OC2=O)C3C1 (centres unmarked) [Compound 8, (2a, 3b, 12a)-trihydorxy-olean-28-oic acid 28,13-lactone] | > 20 µM | reduced inhibitory effects | low glucose uptake stimulation | –
C=C1[C@@H](O)[C@H](O)C[C@]2(C)[C@H]3CC=C4[C@@H]5[C@@H](C)[C@H](C)CC[C@]5(C(=O)O)CC[C@@]4(C)[C@]3(C)CC[C@@H]12 [Compound 11, ilekudinol B] | 14.1 ± 0.3 µM | – | – | –
CC1(C)CC[C@]2(C(=O)O)CC[C@]3(C)C(=CC[C@@H]4[C@@]5(C)CC[C@H](O)C(C)(C)[C@@H]5CC[C@]43C)[C@@H]2C1 [Compound 12, oleanolic acid] | – | – | showed glucose uptake stimulatory effects | glucose homeostasis and progression of type 2 diabetes [4]: improve glucose homeostasis and prevent the progression of type 2 diabetes
CC1(C)CC[C@]2(C(=O)O)CC[C@]3(C)C(=CC[C@@H]4[C@@]5(C)C[C@@H](O)[C@H](O)C(C)(C)[C@@H]5CC[C@]43C)[C@@H]2C1 [Compound 13, maslinic acid] | – | significant inhibitory activity | showed glucose uptake stimulatory effects; also recorded: particularly potent glucose uptake stimulatory effects | IC50 [1]: 1.28 ± 0.1 µM; Ki [3]: 3.2 ± 0.6 µM; Inhibition Type [3]: non-competitive inhibitor of PTP1B; concentration-response of glucose uptake stimulation [2]: dose dependent; glucose uptake [5]: increased glucose uptake; intracellular Ca2+ concentration [5]: raised intracellular Ca^2+ concentration; lipid droplet and triglyceride levels [5]: reduced lipid droplet and triglyceride levels
CC1(C)CC[C@]2(C(=O)O)CC[C@]3(C)C(=CCC4[C@@]5(C)C[C@@H](O)[C@H](OC(=O)/C=C\c6ccc(O)cc6)C(C)(C)C5CC[C@]43C)C2C1 (some centres unmarked) [Compound 17, 3-O-(Z)-p-coumaroyl maslinic acid] | 2.6 ± 0.3 µM | strong PTP1B inhibitory activities; also recorded: significant inhibitory activity | showed glucose uptake stimulatory effects; also recorded: particularly potent glucose uptake stimulatory effects | Ki [3]: 2.7 ± 0.4 µM; Inhibition Type [3]: non-competitive inhibitor of PTP1B; concentration-response of glucose uptake stimulation [2]: dose dependent

The next lines start with results.

IC50 [1, 6] | PTP1B inhibitory activity (in words) [1] | Structure (SMILES) | glucose uptake (2-NBDG) stimulatory effect [2] | other results
8.7 ± 0.6 µM | – | C=C(C)[C@@H]1CC[C@]2(C(=O)OC)CC[C@]3(C(=O)O)C(CCC4[C@@]5(C)CC[C@H](O)C(C)(C)C5CC[C@]43C)C12 (some centres unmarked) [Compound 4, melaleucic acid 28-O-methyl ester] | – | –
2.2 ± 0.1 µM | significant inhibitory activity | C=C(C)[C@@H]1CC[C@]2(C(=O)O)CC[C@]3(C)[C@H](CC[C@@H]4[C@@]5(C)CC[C@H](O)C(C)(C)[C@@H]5CC[C@]43C)[C@@H]12 [Compound 5, betulinic acid] | – | –
4.4 ± 0.5 µM | strong PTP1B inhibitory activities | C[C@@H]1CC[C@]2(C(=O)O)CC[C@]3(C)C(=CCC4[C@@]5(C)C[C@@H](O)[C@H](O)[C@@](C)(CO)C5CC[C@]43C)C2[C@]1(C)O (some centres unmarked) [Compound 9] | – | Ki [3]: 7.6 ± 1.2 µM; Inhibition Type [3]: non-competitive inhibitor of PTP1B
12.2 ± 0.3 µM | – | C=C1C2CC[C@]3(C)C(CC=C4C5[C@](C(=O)O)(CC[C@@H](C)[C@@]5(C)O)CC[C@]43C)[C@@]2(C)C[C@@H](O)[C@@H]1O (stereo partly drawn) [Compound 10, 2α,3β,19α-trihydroxy-24-norurs-4(23),12-dien-28-oic acid] | – | –
3.6 ± 0.2 µM | – | CC1(C)CC[C@]2(CO)CC[C@]3(C)C(=CC[C@@H]4[C@@]5(C)CC[C@H](O)C(C)(C)[C@@H]5CC[C@]43C)[C@@H]2C1 [Compound 14, erythrodiol] | – | –
6.6 ± 0.6 µM | – | CC1(C)CC[C@]2(C(=O)O)CC[C@]3(C)C(=CC[C@@H]4[C@@]5(C)C[C@@H](O)[C@H](O)[C@@](C)(CO)[C@@H]5CC[C@]43C)[C@@H]2C1 [Compound 15, arjunolic acid] | – | –
3.6 ± 0.4 µM | – | CC1(C)CC[C@]2(C(=O)O)CC[C@]3(C)C(=CCC4[C@@]5(C)C[C@@H](O)[C@H](OC(=O)/C=C/c6ccc(O)cc6)C(C)(C)C5CC[C@]43C)C2C1 (some centres unmarked) [Compound 16, 3-O-(E)-p-coumaroyl maslinic acid] | showed glucose uptake stimulatory effects | –
